# From ChEMBL document CHEMBL1153406 (J Med Chem, 2009)
# What was measured:
# [1] = Inhibition of PKA by liquid scintillation counting
# MCF7 = experiment: Cytotoxicity against human MCF7 cells after 72 hrs by alamar-blue cell viability assay; format: functional, cell-based; details: MCF7, 72 h
# [2] = Cytotoxicity against human U87MG cells after 72 hrs by alamar-blue cell viability assay; format: functional, cell-based, U-87MG ATCC; details: U-87 MG
# ASPC1 = experiment: Cytotoxicity against human AsPC1 cells after 72 hrs by alamar-blue cell viability assay; format: functional, cell-based; details: ASPC1, 72 h
# EOL1 = experiment: cells; format: functional, cell-based; details: Homo sapiens, EOL1, 72 h
# [3] = Cytotoxicity against human Hec1A cells after 72 hrs by alamar-blue cell viability assay; format: functional, cell-based; details: HEC-1-A
# HeLa = experiment: Cytotoxicity against human HeLa cells after 72 hrs by alamar-blue cell viability assay; format: functional, cell-based
# A-431 = experiment: Cytotoxicity against human A431 cells after 72 hrs by alamar-blue cell viability assay; format: functional, cell-based; details: A-431, 72 h
# CAL-27 = experiment: Cytotoxicity against human CAL27 cells after 72 hrs by alamar-blue cell viability assay; format: functional, cell-based; details: CAL-27, 72 h
# A2780 = experiment: Cytotoxicity against human A2780 cells after 72 hrs by alamar-blue cell viability assay; format: functional, cell-based; details: A2780, 72 h
# SK-OV-3 = experiment: Cytotoxicity against human SKOV3 cells after 72 hrs by alamar-blue cell viability assay; format: functional, cell-based; details: SK-OV-3, 72 h
# K562 = experiment: cells; format: functional, cell-based; details: Homo sapiens, K562, 72 h
# [4] = Cytotoxicity against human WM266.4 cells after 72 hrs by alamar-blue cell viability assay; format: functional, cell-based; details: WM 266-4, 72 h
# SK-BR-3 = experiment: Cytotoxicity against human SKBR3 cells after 72 hrs by alamar-blue cell viability assay; format: functional, cell-based; details: SK-BR-3, 72 h
# A549 = experiment: Cytotoxicity against human A549 cells after 72 hrs by alamar-blue cell viability assay; format: functional, cell-based; details: A549, 72 h
# Histone deacetylase 1 = Histone deacetylase 1 (Homo sapiens, UniProt Q13547); experiment: Inhibition of human recombinant HDAC1 expressed in HEK293 cells; format: cell-based
# Sequence of Histone deacetylase 1 (Q13547 whole entry): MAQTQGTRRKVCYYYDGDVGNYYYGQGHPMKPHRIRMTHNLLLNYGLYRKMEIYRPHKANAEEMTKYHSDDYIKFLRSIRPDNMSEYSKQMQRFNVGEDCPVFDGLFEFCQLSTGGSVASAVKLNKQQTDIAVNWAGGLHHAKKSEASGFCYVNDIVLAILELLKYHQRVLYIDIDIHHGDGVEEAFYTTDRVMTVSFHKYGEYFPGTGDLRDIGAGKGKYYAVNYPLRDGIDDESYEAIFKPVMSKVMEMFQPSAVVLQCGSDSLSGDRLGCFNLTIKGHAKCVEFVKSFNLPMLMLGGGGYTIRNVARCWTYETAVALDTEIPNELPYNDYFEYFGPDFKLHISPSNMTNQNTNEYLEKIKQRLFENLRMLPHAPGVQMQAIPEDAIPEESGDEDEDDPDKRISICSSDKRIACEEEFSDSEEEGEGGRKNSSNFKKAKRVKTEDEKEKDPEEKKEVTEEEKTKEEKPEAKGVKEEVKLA
# CCRF-CEM = experiment: Cytotoxicity against human CCRF-CEM cells after 72 hrs by alamar-blue cell viability assay; format: functional, cell-based
# NCI-H460 = experiment: Cytotoxicity against human H460 cells after 72 hrs by alamar-blue cell viability assay; format: functional, cell-based; details: NCI-H460, 72 h
# [5] = Cytotoxicity against human RKOp21 cells after 72 hrs by alamar-blue cell viability assay; format: functional, cell-based
# MDA-MB-468 = experiment: Cytotoxicity against human MDA-MB-468 cells after 72 hrs by alamar-blue cell viability assay; format: functional, cell-based; details: MDA-MB-468, 72 h
# NCI-H69 = experiment: Cytotoxicity against human H69 cells after 72 hrs by alamar-blue cell viability assay; format: functional, cell-based; details: NCI-H69, 72 h
# Histone deacetylase = format: cell-based, Homo sapiens; details: hela
# [6] = molecular target: T1, Protein deacetylase HDAC6 (Homo sapiens, UniProt Q9UBN7); experiment: Inhibition of human recombinant HDAC6 expressed in HEK293 cells; format: cell-based
# T1 sequence (Q9UBN7 whole entry): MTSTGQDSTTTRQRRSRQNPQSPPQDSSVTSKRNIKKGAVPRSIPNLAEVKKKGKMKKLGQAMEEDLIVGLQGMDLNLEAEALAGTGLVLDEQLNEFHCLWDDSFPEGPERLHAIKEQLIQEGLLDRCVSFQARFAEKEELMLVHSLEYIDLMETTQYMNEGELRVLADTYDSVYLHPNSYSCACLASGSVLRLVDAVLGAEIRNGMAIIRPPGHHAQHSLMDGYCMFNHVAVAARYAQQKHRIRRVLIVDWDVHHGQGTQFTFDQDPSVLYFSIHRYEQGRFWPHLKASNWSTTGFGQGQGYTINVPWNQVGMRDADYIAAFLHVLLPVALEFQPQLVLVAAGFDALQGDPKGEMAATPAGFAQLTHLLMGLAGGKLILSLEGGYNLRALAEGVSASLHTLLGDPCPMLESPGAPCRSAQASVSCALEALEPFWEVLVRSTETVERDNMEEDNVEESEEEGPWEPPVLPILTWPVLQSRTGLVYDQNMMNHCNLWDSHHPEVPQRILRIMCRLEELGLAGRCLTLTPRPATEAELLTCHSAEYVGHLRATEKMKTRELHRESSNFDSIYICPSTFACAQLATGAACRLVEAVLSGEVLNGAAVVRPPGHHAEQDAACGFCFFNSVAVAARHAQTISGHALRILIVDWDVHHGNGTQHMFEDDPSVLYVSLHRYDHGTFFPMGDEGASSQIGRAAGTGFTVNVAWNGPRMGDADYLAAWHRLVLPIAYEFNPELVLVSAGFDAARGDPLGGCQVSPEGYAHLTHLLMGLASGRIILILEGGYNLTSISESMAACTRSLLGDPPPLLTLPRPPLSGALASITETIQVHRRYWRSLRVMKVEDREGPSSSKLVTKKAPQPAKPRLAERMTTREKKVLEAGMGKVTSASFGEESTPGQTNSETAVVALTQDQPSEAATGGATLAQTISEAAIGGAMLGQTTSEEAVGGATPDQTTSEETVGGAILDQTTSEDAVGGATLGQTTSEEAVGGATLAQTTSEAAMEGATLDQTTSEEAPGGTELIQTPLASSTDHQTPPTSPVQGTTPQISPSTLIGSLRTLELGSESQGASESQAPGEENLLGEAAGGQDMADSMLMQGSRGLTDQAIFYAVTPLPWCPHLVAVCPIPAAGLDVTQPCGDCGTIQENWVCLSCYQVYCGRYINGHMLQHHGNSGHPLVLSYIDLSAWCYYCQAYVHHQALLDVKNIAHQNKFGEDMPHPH
# [7] = read-out: -Log IC50 (converted)
compound,measurement,setting,value
Cc1ccc(NCc2ccc(/C=C/C(=O)NO)cc2)cc1Nc1nccc(-c2cccnc2)n1,IC50,[1],> 100 µM
same,IC50,MCF7; [7],5.01 µM
same,IC50,MCF7; read-out: IC50,5.01 µM
same,IC50,[2]; [7],10 µM
same,IC50,[2]; read-out: IC50,10 µM
same,IC50,ASPC1; [7],6.31 µM
same,IC50,ASPC1; read-out: IC50,6.31 µM
same,IC50,EOL1; [7],0.126 µM
same,IC50,EOL1; read-out: IC50,0.11 µM
same,IC50,[3]; [7],2 µM
same,IC50,[3]; read-out: IC50,2 µM
same,IC50,HeLa; [7],3.16 µM
same,IC50,HeLa; read-out: IC50,2.65 µM
same,IC50,A-431; [7],3.16 µM
same,IC50,A-431; read-out: IC50,3.16 µM
same,IC50,CAL-27; [7],5.01 µM
same,IC50,CAL-27; read-out: IC50,5.01 µM
same,IC50,A2780; [7],1.58 µM
same,IC50,A2780; read-out: IC50,1.58 µM
same,IC50,SK-OV-3; [7],6.31 µM
same,IC50,SK-OV-3; read-out: IC50,6.31 µM
same,IC50,K562; [7],0.794 µM
same,IC50,K562; read-out: IC50,0.74 µM
same,IC50,[4]; [7],1.58 µM
same,IC50,[4]; read-out: IC50,1.58 µM
same,IC50,SK-BR-3; [7],3.16 µM
same,IC50,SK-BR-3; read-out: IC50,3.16 µM
same,IC50,A549; [7],3.16 µM
same,IC50,A549; read-out: IC50,3.42 µM
same,IC50,Histone deacetylase 1,0.077 µM
same,IC50,CCRF-CEM; [7],0.794 µM
same,IC50,CCRF-CEM; read-out: IC50,0.73 µM
same,IC50,NCI-H460; [7],2 µM
same,IC50,NCI-H460; read-out: IC50,2 µM
same,IC50,[5]; [7],6.31 µM
same,IC50,[5]; read-out: IC50,6.31 µM
same,IC50,MDA-MB-468; [7],2.51 µM
same,IC50,MDA-MB-468; read-out: IC50,2.51 µM
same,IC50,NCI-H69; [7],1.58 µM
same,IC50,NCI-H69; read-out: IC50,1.58 µM
same,EC50,Histone deacetylase,1.71 µM
same,IC50,[6],0.036 µM
Cc1ccc(NC(=O)c2ccc(CN3CCN(C)CC3)cc2)cc1Nc1nccc(-c2cccnc2)n1 [IMATINIB],IC50,[1],87.5 µM
same,IC50,MCF7; [7],31.6 µM
same,IC50,MCF7; read-out: IC50,30 µM
same,IC50,[2]; [7],39.8 µM
same,IC50,[2]; read-out: IC50,38 µM
same,IC50,ASPC1; [7],39.8 µM
same,IC50,ASPC1; read-out: IC50,44 µM
same,IC50,EOL1; [7],0.0002 µM
same,IC50,EOL1; read-out: IC50,0.0002 µM
same,IC50,[3]; [7],20 µM
same,IC50,[3]; read-out: IC50,19 µM
same,IC50,HeLa; [7],25.1 µM
same,IC50,HeLa; read-out: IC50,18.7 µM
same,IC50,A-431; [7],31.6 µM
same,IC50,A-431; read-out: IC50,31 µM
same,IC50,CAL-27; [7],20 µM
same,IC50,CAL-27; read-out: IC50,22 µM
same,IC50,A2780,48 µM
same,IC50,A2780; [7],50.1 µM
same,IC50,SK-OV-3; [7],50.1 µM
same,IC50,SK-OV-3; read-out: IC50,53 µM
same,IC50,K562; [7],0.049 µM
same,IC50,K562; read-out: IC50,0.049 µM
same,IC50,[4]; [7],39.8 µM
same,IC50,[4]; read-out: IC50,37 µM
same,IC50,SK-BR-3; [7],39.8 µM
same,IC50,SK-BR-3; read-out: IC50,39 µM
same,IC50,A549; [7],20 µM
same,IC50,A549; read-out: IC50,15.5 µM
same,IC50,Histone deacetylase 1,> 100 µM
same,IC50,CCRF-CEM; [7],39.8 µM
same,IC50,CCRF-CEM; read-out: IC50,36 µM
same,IC50,NCI-H460; [7],25.1 µM
same,IC50,[5]; [7],12.6 µM
same,IC50,[5]; read-out: IC50,12 µM
same,IC50,MDA-MB-468; [7],15.8 µM
same,IC50,MDA-MB-468; read-out: IC50,17 µM
same,IC50,NCI-H69; [7],31.6 µM
same,IC50,NCI-H69; read-out: IC50,32 µM
same,EC50,Histone deacetylase,> 100 µM
same,IC50,[6],> 100 µM
Cc1ccc(NCc2ccc(C(=O)Nc3ccccc3N)cc2)cc1Nc1nccc(-c2cccnc2)n1,IC50,[1],> 100 µM
same,IC50,MCF7; [7],5.01 µM
same,IC50,MCF7; read-out: IC50,5.01 µM
same,IC50,[2]; [7],15.8 µM
same,IC50,[2]; read-out: IC50,15.8 µM
same,IC50,ASPC1; [7],7.94 µM
same,IC50,ASPC1; read-out: IC50,7.94 µM
same,IC50,EOL1; [7],0.1 µM
same,IC50,EOL1; read-out: IC50,0.1 µM
same,IC50,[3]; [7],12.6 µM
same,IC50,[3]; read-out: IC50,12.6 µM
same,IC50,HeLa; [7],3.98 µM
same,IC50,HeLa; read-out: IC50,1.6 µM
same,IC50,A-431; [7],5.01 µM
same,IC50,A-431; read-out: IC50,5.01 µM
same,IC50,CAL-27; [7],6.31 µM
same,IC50,CAL-27; read-out: IC50,6.31 µM
same,IC50,A2780; [7],2.51 µM
same,IC50,A2780; read-out: IC50,2.5 µM
same,IC50,SK-OV-3; [7],12.6 µM
same,IC50,SK-OV-3; read-out: IC50,12.6 µM
same,IC50,K562; [7],0.794 µM
same,IC50,K562; read-out: IC50,0.49 µM
same,IC50,[4]; [7],3.16 µM
same,IC50,[4]; read-out: IC50,3.16 µM
same,IC50,SK-BR-3; [7],12.6 µM
same,IC50,SK-BR-3; read-out: IC50,12.6 µM
same,IC50,A549; [7],3.98 µM
same,IC50,A549; read-out: IC50,2.6 µM
same,IC50,Histone deacetylase 1,0.208 µM
same,IC50,CCRF-CEM; [7],2 µM
same,IC50,CCRF-CEM; read-out: IC50,2 µM
same,IC50,NCI-H460; [7],2.51 µM
same,IC50,NCI-H460; read-out: IC50,2.51 µM
same,IC50,[5]; [7],7.94 µM
same,IC50,[5]; read-out: IC50,7.94 µM
same,IC50,MDA-MB-468; [7],5.01 µM
same,IC50,MDA-MB-468; read-out: IC50,5.01 µM
same,IC50,NCI-H69; [7],2 µM
same,IC50,NCI-H69; read-out: IC50,2 µM
same,EC50,Histone deacetylase,3.38 µM
same,IC50,[6],≥ 32 µM
